In patent US20090226367A1, “COMPOSITIONS COMPRISING AN ANTI-CA125 ANTIBODY AND A CYTOTOXIC COMPOUND AND THEIR USE FOR THE TREATMENT OF CANCER” (priority 2005, published 2009):

Assays:
[1] = nude mice; cited from earlier work
[2] = tested on: OVCAR-3 subcutaneous tumors; test: subcutaneous OVCAR-3 xenograft model, tumor growth; format: in vivo, NCr nu/nu mice; conditions: for Tumor Regression (number of animals): groups of 8 mice
Procedure: Model of Human Cancer: A subcutaneous OVCAR-3 xenograft model was used.
Animals: Female NCr nu/nu (“nude”) mice (Taconic Farms, Germantown, N.Y.) 6-7 weeks old were used for all studies. All animals were housed in sterile micro-isolators, and were given autoclaved food and water ad libitum.
OVCAR-3 cells were serially propagated in vivo 3 times within the peritoneal cavities of NCr nu/nu mice, followed by subcutaneous implantation in the flank of the mice. […] Mice were injected with 0.2 ml volume of the cell suspension for a final dose of 3×10^6 cells. Beginning approximately 10 days post-implantation, palpable tumors were measured with electronic calipers (Fowler Instruments, Newton, Mass.) across two perpendicular dimensions. Mice were randomly sorted into groups of eight based on tumor volume. […] Tumor measurements and observations were recorded twice a week. Tumor volume was calculated using the standard formula (Length×Width^2)×0.5.
Control groups consisted of mice injected with 0.9% sodium chloride alone. […] Tumors were measured two times per week. Mice were sacrificed when the tumor volume was greater than 10% of their body weight.
Tumor volumes were compared by Mann-Whitney analysis using Prizm software (GraphPad Software, Inc.). Regression was defined as beginning when a tumor reached <50% of its starting volume and ending when the tumor reached >50% of its initial volume. Partial regression (PR) was defined as when a tumor decreased by 50% or more in volume for at least 7 days, and then later regrew. Complete regression (CR) was defined as when a tumor disappeared for at least 7 days.

[3] = paclitaxel 10 mg/kg weekly for three weeks (q3d7)

Question: For CC(=O)O[C@H]1C(=O)[C@@]2(C)[C@H]([C@H](OC(=O)c3ccccc3)[C@]3(O)C[C@H](OC(=O)[C@H](O)[C@@H](NC(=O)c4ccccc4)c4ccccc4)C(C)=C1C3(C)C)[C@]1(OC(C)=O)CO[C@@H]1C[C@@H]2O [Paclitaxel, paclitaxel], which MTD [1] is on record?
Answer: > 30 mg/kg

Question: What about the “% T/C” value ([2]; paclitaxel 10 mg/kg single dose (day 0), day 40, relative to saline control) of the same compound?
Answer: 58%

Question: What about the “Tumor Regression (number of animals)” value ([2]; paclitaxel 10 mg/kg single dose (day 0)) of the same compound?
Answer: no animals had observable regression of tumors

Question: And the “Duration (days) of tumor regression” value [2, 3]?
Answer: 14 days

Question: And the “PR (partial regression, number of animals)” value [2, 3]?
Answer: 1

Question: What about the “% T/C” value ([2]; paclitaxel 10 mg/kg weekly for three weeks (q3d7), day 40) of the same compound?
Answer: 29%

Question: And the “Tumor Regression (number of animals)” value [2, 3]?
Answer: 1

Question: And the “animals demonstrating regression of tumors” value ([2]; three weekly treatments with 10 mg/kg paclitaxel)?
Answer: 10%
